Measurements: patent US7264947B2, “Activity dependent neurotrophic factor III (ADNF III)” (United States of America, as represented by the Secretary …, priority 1997, dated 2007)
Values joined by “and” are separate entries in the source; they are usually repeats but may differ in a detail not shown here. Equal entries are not always repeated. “Also recorded” adds a separate entry of the source.

Assays:
[1] = system: cerebral cortical cultures; assay type: cell-based, newborn rats; conditions: 1 μM tetrodotoxin, five days; P<0.01
AF64A-treated animals = test: water maze, learning and memory deficiencies associated with cholinergic blockade (AF64A); assay type: in vivo; conditions: rats, cholinotoxin AF64A, peptide intranasally; listed as NAPVSIPQ
Procedure: Protection against learning and memory deficiencies associated with cholinergic blockade was evaluated. Cholinergic blockade was obtained in rats by administration of the cholinotoxin AF64A, NAPVSIPQ (SEQ ID NO:6), which was administered intranasally and the water maze experiments were performed as before (Gozes et al., Proc. Natl. Acad. Sci. USA 93:427-432 (1996), the teachings of which are incorporated herein by reference).
The ability of ADNF III polypeptides to protect against learning and memory deficiencies associated with cholinergic blockade was also investigated. Cholinergic blockade was obtained in rats by administration of the cholinotoxin AF64A, NAPVSIPQ (SEQ ID NO:6) (termed NAP in FIG. 8). NAPVSIPQ (SEQ ID NO:6) was administered intranasally and the water maze experiments were performed as before (Gozes et al., Proc. Natl. Acad. Sci. USA 93:427-432 (1996)).

[2] = system: cerebral cortical cultures; test: neuroprotection against β-amyloid peptide (25-35) neurotoxicity in cerebral cortical cultures; assay type: cell-based, newborn rats; conditions: 25 μM β-amyloid fragment 25-35, five days; P<0.01
ApoE-deficient mice = test: developmental milestones (placing response, cliff avoidance) in ApoE-deficient mice; assay type: in vivo
Description: Animals (15-37 per experimental group, 5-8 per litter) were submitted to placing response assays daily following injection of: 1. saline (open circles, C57B6 mice=control, n=37, closed circles, ApoE deficient=ApoE, n=22). Experiments were repeated three times. Score indicates: 0=no reaction, 1=time to acquire a response shorter than 15 seconds; 2=time to acquire a response shorter than 10 seconds; 3=time to acquire a response shorter than 5 seconds. Age (days) indicate: the age of the tested animals in days. Results are mean±SEM.
ApoE knockout mice and normal controls were a gift from the late Prof. Shlomo Eisenberg of Tel Aviv University, originally provided by Dr. J. L. Breslow (Plump et al., Cell 71:343-353 (1992)). The ApoE knockout mice were obtained from embryonic stem cells OLA 129 in C57B6×FVB mice (as described). Age-matched controls were inbred C57B6 mice. Groups of mouse pups were treated from birth until the age of 14 days. Daily subcutaneous injections included: […] saline (days 1 through 4), […] saline (days 5 through 10) and […] saline (days 11-14).
Developmental milestones were measured using at least three dams with […] each for every experimental point. All observations were made between 12 noon and 4 pm. From day one through day six, mice were weighed and tested 60 min. after the daily injection. Placing is a behavioral parameter that is measured as the time elapsing between contact of the foot against the edge of an object and its placing on the top of the same object.
Further measurements in the Apo-E-deficient mouse included assessments of the time of onset of developmental milestones of behavior. […] A significant difference was observed among the treatment groups on the first day of testing (P<0.0001), with inbred C57B6 mice developing faster than the ApoE-deficient animals. […] NAP-treated animals were the fastest.

[3] = structure-activity studies of ADNF III peptides (FIGS. 7A and 7B); assay type: cell-based

## Asn-Ala-Pro-Val-Ser-Ile-Pro-Gln [NAP]
[1]
  concentrations of significant neuroprotection against tetrodotoxin: 10^−18-10^−14 M
AF64A-treated animals
  learning and memory in water maze: showed improvement in their learning and memory capacities and behaved as control animals
[2]
  concentrations of significant neuroprotection against β-amyloid: 10^−16 M and 10^−15 M
ApoE-deficient mice; P<0.0001
  placing response from the second postnatal day onwards: best performers
ApoE-deficient mice; daily injection
  acquisition of the placing response and the cliff avoidance response: showed acceleration
ApoE-deficient mice; tested 60 min. after injection
  marked improvement of placing response at the first day of treatment: marked improvement; also recorded: the fastest
[3]
  relative activity in structure-activity studies: most active peptide
[3]; two peaks, listed as NAPVSIPQ
  peak optimum concentrations: 10^−16-10^−14 M and 10^−11-10^−10 M
